Data reported in patent US6415046B1, “Method and apparatus for the early detection of tissue pathology using wavelet transformation” (priority 1999, dated 2002).
Where two headings read alike, the source gives them in different places. Marks after values point to notes of the source that are not given here.

What was measured:
[1] = system: Male Sprague-Dawley SPF rats; details: mean±SEM
Description: Two groups of laboratory rats were used to perform two separate experiments (Experiments 1 and 2). Male Sprague-Dawley SPF rats (Charles River Laboratories, Wilmington, Ma.) weighing between 175-200 grams were used for each study. Rats were housed two per cage in a controlled-temperature (20-22° Celsius) room where they were exposed to a 12-hour light/dark cycle. Both groups of animals received food and either water or ethanol ad lib. Body weights were recorded on a weekly basis and fluid consumption was monitored in all groups for the duration of the study. The study was approved by the Louisiana State University Medical Center Institutional Animal Care and Use Committee.
(§1) Rats in the diabetic group were injected with streptozotocin (45 mg/kg) prepared in a 0.02 M sodium citrate solution (pH 4.5) via a tail vein to induce diabetes mellitus. Rats assigned to all other groups were injected with a similar volume of sodium citrate solution. Glycosylated hemoglobin (total) was measured in tail-vein blood in all rats within two days of echocardiographic examination using a commercially available kit (Sigma Chemical Co, St. Louis, Mo.).
(§2) Twenty-five rats were used in this experiment with five animals in each group.
All animals were anesthetized with a solution of ketamine-xylazine (50-mg/kg ketamine, 4-mg/kg xylazine, intraperitoneal) and the thoracic and upper abdominal areas shaved prior to echocardiography. The rats were positioned on a table for M-mode and two-dimensional echocardiograms. Studies were performed with a Toshiba Model 380 Echocardiography instrument (Toshiba America Medical Systems, Tustin, Calif.) using a 10 MHZ transducer calibrated with phantoms prior to use. Lateral resolution less than 0.20 mm within the ROI is achieved at the imaging depths used.

[2] = mean±SEM; for Body weights at the time of echocardiographic examination: Experiment 1; for Body weights: Experiment 2, 10-weeks
Description: Two groups of laboratory rats were used to perform two separate experiments (Experiments 1 and 2). Male Sprague-Dawley SPF rats (Charles River Laboratories, Wilmington, Ma.) weighing between 175-200 grams were used for each study. Rats were housed two per cage in a controlled-temperature (20-22° Celsius) room where they were exposed to a 12-hour light/dark cycle. Both groups of animals received food and either water or ethanol ad lib. Body weights were recorded on a weekly basis and fluid consumption was monitored in all groups for the duration of the study.
as §1, §2

[3] = system: Male Sprague-Dawley SPF rats; details: 10-week rats
Description: In Experiment 2 (10-week), cardiac and renal tissues were harvested, rinsed in ice-cold physiologic saline, and then placed in 10% (v/v) formaldehyde solution in aqueous phosphate buffer (pH 7.4) (Mallinckrodt Inc., St. Louis, Mo.). Pancreatic tissue was harvested and fixed in buffered zinc-formaldehyde. Microscopic analysis were performed on H&E stained tissue slices.
Tissues from 10-week rats were analyzed using H&E staining. […] The degree of infiltration was evaluated qualitatively as none, few (1-4 cells per field), or marked infiltration.

[4] = Experiment 1 (5 Wks), diabetic rats, 4% ethanol
[5] = Experiment 1 (5 Wks), non-diabetic rats, 12% ethanol
[6] = Experiment 2 (10 Wks), diabetic rats, 4% ethanol
[7] = Experiment 2 (10 Wks), non-diabetic rats, 4% ethanol
[8] = Experiment 2 (10 Wks), non-diabetic rats, 12% ethanol
[9] = DE4 group (diabetic, 4% ethanol)
[10] = E12 group (non-diabetic, 12% ethanol)

IVSD [1, 4]: 0.120 ± 0.004 cm
LVD [1, 4]: 0.455 ± 0.027 cm
PWD [1, 4]: 0.143 ± 0.005 cm
IVSD [1, 5]: 0.130 ± 0.007 cm
LVD [1, 5]: 0.540 ± 0.027 cm
PWD [1, 5]: 0.150 ± 0.003 cm
IVSD [1, 6]: 0.105 ± 0.005 cm
LVD [1, 6]: 0.618 ± 0.032 cm
PWD [1, 6]: 0.125 ± 0.004^d cm
IVSD [1, 7]: 0.126 ± 0.01^a cm
LVD [1, 7]: 0.533 ± 0.033 cm
PWD [1, 7]: 0.155 ± 0.005^c cm
IVSD [1, 8]: 0.151 ± 0.004^b cm
LVD [1, 8]: 0.593 ± 0.018 cm
PWD [1, 8]: 0.159 ± 0.002^c cm
Rats with clear cells, indicative of glycogen deposition, in the kidney [3, 9]: 60%
Lymphocytic infiltrates in myocardial IVS on histologic examination ([3]; DE group (diabetic, 4% ethanol)): did not show infiltrates
Lymphocytic infiltrates in myocardial IVS on histologic examination ([3]; E4 group, all animals, graded none, few (1-4 cells per field), marked): marked lymphocytic infiltrates
Lymphocytic infiltrates in myocardial IVS on histologic examination ([3]; E12 group, all animals, graded none, few (1-4 cells per field), marked): marked lymphocytic infiltrates
SMILES: CCO [Ethanol, ethanol]
Body weights at the time of echocardiographic examination [2, 9]: 292±22 grams (g)
Body weights at the time of echocardiographic examination [2, 10]: 301±11 grams (g)
Body weights [2, 9]: 295 ± 16 g
Body weights ([2]; E4 group (non-diabetic, 4% ethanol)): 598 ± 29 g
Body weights [2, 10]: 581 ± 25 g
